According to patent US20100063046A1, “TETRACYCLIC IMIDAZOLE ANALOGS” (priority 2006, published 2010):

B1: 8762NT: DNA oligonucleotide from human rDNA non-template strand, CGGAGGGCGCGCGGGTCGGGGCGGCGGCGGCGGCGGCGGTGGCGGCGGCGGCGGGGGCGGCGGG (nucleic acid)
DNA: CGGAGGGCGCGCGGGTCGGGGCGGCGGCGGCGGCGGCGGTGGCGGCGGCGGCGGGGGCGGCGGG
modifications: chemistry not given here

Molecular target: T1, nucleolin (Homo sapiens, UniProt P19338)
T1 construct: without the N-terminal acidic stretches domain
Assay: Nucleolin/nucleic acid ligand interaction assay (gel retardation)
Assay type: binding
Parameters: key: A “+” represents the weakest nucleolin affinity; a “++++” represents the strongest nucleolin affinity
Details: relative affinity of each nucleic acid ligand for recombinant nucleolin (MBP fusion, ~250 nM); 32P-labeled ligand; 6% DNA retardation gel
Method: The following assays can be used to assess the effects of compounds on interactions between nucleolin and nucleic acid ligands capable of forming quadruplex (QP) and hairpin (HP) secondary structures. Nucleic acid ligands tested were a cMyc QP DNA having nucleotide sequence 5′-[…]-3′ and a HP pre-rRNA region to which nucleolin binds, having the sequence 5′-[…]-3′. In the assays, recombinant nucleolin (˜250 nM), which has been fused to maltose binding protein, and has the sequence under accession number NM_005381 without the N-terminal acidic stretches domain, is incubated with each of the two ^32P-labeled nucleic acid ligands (10 or 250 nM). Nucleolin and the nucleic acid ligand are incubated in the presence or absence of a test compound 7 in an incubation buffer (12.5 mM Tris, pH 7.6, 60 mM KCl, 1 mM MgCl2, 0.1 mM EDTA, 1 mM DTT, 5% glycerol, 0.1 mg/ml BSA) for 30 minutes at room temperature.
The resulting complexes are separated on a 6% DNA retardation gel using 0.5×TBE with 20 mM KCl as a running buffer. The assay also can be conducted using nucleic acid ligands derived from human ribosomal DNA, whereby one can identify a compound that selectively modulates formation of a nucleolin/nucleic acid complex that depends on the conformation of the nucleic acid. Sequences of suitable nucleic acids are shown in the preceding example. […] A “+” represents the weakest nucleolin affinity and a “++++” represents the strongest nucleolin affinity. […] Using nucleic acids such as these having known conformational properties, one can identify a compound such as the compounds described herein that selectively interferes with binding of nucleolin to a particular quadruplex structure.

T1 sequence (P19338 284-710 limits assumed): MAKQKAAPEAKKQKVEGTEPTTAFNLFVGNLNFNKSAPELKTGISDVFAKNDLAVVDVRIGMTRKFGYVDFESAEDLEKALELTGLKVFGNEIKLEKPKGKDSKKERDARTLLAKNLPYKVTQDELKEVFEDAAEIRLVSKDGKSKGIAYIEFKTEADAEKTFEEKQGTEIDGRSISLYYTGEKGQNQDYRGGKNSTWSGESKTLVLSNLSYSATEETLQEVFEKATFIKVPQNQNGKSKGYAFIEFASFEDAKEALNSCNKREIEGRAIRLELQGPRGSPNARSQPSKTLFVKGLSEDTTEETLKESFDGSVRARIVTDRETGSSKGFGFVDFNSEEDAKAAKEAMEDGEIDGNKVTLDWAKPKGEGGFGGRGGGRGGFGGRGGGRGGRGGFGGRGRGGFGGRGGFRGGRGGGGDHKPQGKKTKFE

Molecule | Affinity for Nucleolin
7733T: DNA oligonucleotide from human rDNA template strand, GGGAGGGGCACGGGCCGGGGGCGGGACGGG (DNA, backbone and methylation of C not given here) [Example 7733T] | +
11028NT: DNA oligonucleotide from human rDNA non-template strand, GGGGCGCGGCGGGGGGAGAAGGGTCGGGGCGGCAGGGG (DNA, backbone and methylation of C not given here) [Example 11028NT] | +
6183NT: DNA oligonucleotide from human rDNA non-template strand, GGGTCGGGGGCGGTGGTGGGCCCGCGGGGG (DNA, backbone and methylation of C not given here) [Example 6183NT] | +
8511NT: DNA oligonucleotide from human rDNA non-template strand, GGGGGTGGGCGGGCGGGGCCGGGGGTGGG (DNA, backbone and methylation of C not given here) [Example 8511NT] | ++++
8749NT: DNA oligonucleotide from human rDNA non-template strand, GGGAGGGCGCGCGGGTCGGGG (chemistry not given here) [Example 8749NT] | +
B1 | ++++
